Values of other authors as cited in patent US20240238194A1, “ORODISPERSIBLE EFFERVESCENT TABLET COMPRISING BUDESONIDE FOR USE IN THE TREATMENT OF EOSINOPHILIC ESOPHAGITIS” (Dr. Falk Pharma GmbH, priority 2021, published 2024).

Details: in vivo

Substance: budesonide [OVB]
- mucosal medication contact time, measured by scintigraphy: higher
